# Data from ChEMBL document CHEMBL3576842, “Selenium-containing chrysin and quercetin derivatives: attractive scaffolds for cancer therapy” (J Med Chem, 2015).
# Activity calls are given as the source filed them. No cut-off for these calls is given here.
# Key:
# MCF7 [1] = assay: Cytotoxicity against human MCF7 cells assessed as cell growth inhibition after 72 hrs by MTT assay; format: functional, cell-based; conditions: MCF7, 72 h
# A-431 [2] = assay: Cytotoxicity against human A431 cells assessed as cell growth inhibition after 72 hrs by MTT assay; format: functional, cell-based; conditions: A-431, 72 h
# C13 [3] = assay: Resistance factor, ratio of IC50 for cisplatin-resistant human C13 cells to IC50 for human 2008 cells; format: functional
# A-375 = assay: Cytotoxicity against human A375 cells assessed as cell growth inhibition after 72 hrs by MTT assay; format: functional, cell-based; conditions: A-375, 72 h
# HEK293 [4] = assay: Selectivity index, ratio of IC50 for HEK293 cells to IC50 for human A375 cells; format: functional
# A-431 [5] = assay: Resistance factor, ratio of IC50 for cisplatin-resistant human A431 cells to IC50 for human A431 cells; format: functional
# A-431 [6] = assay: Cytotoxicity against cisplatin-resistant human A431 cells assessed as cell growth inhibition after 72 hrs by MTT assay; format: functional, cell-based; conditions: A-431, 72 h
# HCT-15 = assay: Cytotoxicity against human HCT15 cells assessed as cell growth inhibition after 72 hrs by MTT assay; format: functional, cell-based; conditions: HCT-15, 72 h
# NCI/ADR-RES [7] = assay: Selectivity index, ratio of IC50 for HEK293 cells to IC50 for human MCF7/ADR cells; format: functional
# [8] = Cytotoxicity against human MCF7/ADR cells assessed as cell growth inhibition after 72 hrs by MTT assay; format: functional, cell-based; conditions: NCI/ADR-RES
# HEK293 [9] = assay: Selectivity index, ratio of IC50 for HEK293 cells to IC50 for human 2008 cells; format: functional
# [10] = Antioxidant activity assessed as DPPH radical scavenging activity after 1 hr; format: physicochemical
# HEK293 [11] = assay: Cytotoxicity against HEK293 cells assessed as cell growth inhibition after 72 hrs by MTT assay; format: cell-based; conditions: Homo sapiens, HEK293, 72 h
# HEK293 [12] = assay: Selectivity index, ratio of IC50 for HEK293 cells to IC50 for human HCT15 cells; format: functional
# HEK293 [13] = assay: Selectivity index, ratio of IC50 for HEK293 cells to IC50 for human BxPC3 cells; format: functional
# HEK293 [14] = assay: Selectivity index, ratio of IC50 for HEK293 cells to IC50 for human MCF7 cells; format: functional
# C13 [15] = assay: Selectivity index, ratio of IC50 for HEK293 cells to IC50 for human C13 cells; format: functional
# [16] = Cytotoxicity against human BxPC3 cells assessed as cell growth inhibition after 72 hrs by MTT assay; format: functional, cell-based; conditions: BXPC-3, 72 h
# NCI/ADR-RES [17] = assay: Resistance factor, ratio of IC50 for human MCF7/ADR cells to IC50 for human MCF7 cells; format: functional
# HEK293 [18] = assay: Selectivity index, ratio of IC50 for HEK293 cells to IC50 for cisplatin-resistant human A431 cells; format: functional
# [19] = Cytotoxicity against human C13 cells assessed as cell growth inhibition after 72 hrs by MTT assay; format: functional, cell-based; conditions: C13, 72 h
# 2008 = assay: Cytotoxicity against human 2008 cells assessed as cell growth inhibition after 72 hrs by MTT assay; format: functional, cell-based; conditions: Homo sapiens, 2008, 72 h
# HEK293 [20] = assay: Selectivity index, ratio of IC50 for HEK293 cells to IC50 for human A431 cells; format: functional
# MCF7 [21] = assay: Induction of apoptosis in human MCF7 cells assessed as brightly stained nuclei, chromatin condensation and fragmentation at IC50 after 48 hrs by Hoechst 33258/PI fluorescent staining analysis; format: functional, cell-based
# MCF7 [22] = assay: Decrease in total sulfhydryl gropus in human MCF7 cells at IC50 after 24 hrs by DTNB reduction assay; format: functional
# MCF7 [23] = assay: Increase in oxidized glutathione level in human MCF7 cells at IC50 after 48 hrs by spectrophotometric analysis; format: functional
# [24] = target: T1, Thioredoxin reductase (Homo sapiens) (UniProt Q16881+Q9NNW7+Q86VQ6); assay: Inhibition of thioredoxin reductase activity in human MCF7 cells at 20 uM after 24 hrs by DTNB reduction assay; format: cell-based
# [25] = target: T2, Glutathione reductase, mitochondrial (Homo sapiens) (UniProt P00390); assay: Effect on glutathione reductase activity in human MCF7 cells using GSSG as substrate at 1.25 to 20 uM after 24 hrs by spectrophotometric analysis; format: cell-based
# T2 sequence (whole entry): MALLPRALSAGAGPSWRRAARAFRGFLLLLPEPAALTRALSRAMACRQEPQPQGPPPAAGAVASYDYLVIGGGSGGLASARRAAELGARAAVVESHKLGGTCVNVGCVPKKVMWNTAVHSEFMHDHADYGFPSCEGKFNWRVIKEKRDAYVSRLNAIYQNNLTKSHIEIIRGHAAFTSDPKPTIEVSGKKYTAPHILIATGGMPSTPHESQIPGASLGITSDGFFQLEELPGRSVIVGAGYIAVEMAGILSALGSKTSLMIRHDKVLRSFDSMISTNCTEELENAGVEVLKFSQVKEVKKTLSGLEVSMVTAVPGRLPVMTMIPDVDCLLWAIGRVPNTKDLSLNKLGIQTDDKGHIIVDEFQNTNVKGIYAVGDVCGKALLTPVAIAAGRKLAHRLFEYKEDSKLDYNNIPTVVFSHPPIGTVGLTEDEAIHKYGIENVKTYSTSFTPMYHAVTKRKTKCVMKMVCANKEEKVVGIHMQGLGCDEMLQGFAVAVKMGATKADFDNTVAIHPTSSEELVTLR
# MCF7 [26] = assay: Decrease in total glutathione level in human MCF7 cells at IC50 after 48 hrs by spectrophotometric analysis; format: functional
# [27] = target: T1, Thioredoxin reductase (Homo sapiens); assay: Increase in thioredoxin reductase activity in HEK293 cells at 0.0625 to 0.625 uM after 24 hrs by DTNB reduction assay; format: cell-based; set-up: scale not given: the % may be the effect or the level left
# MCF7 [28] = assay: Induction of apoptosis in human MCF7 cells assessed as caspase-3 activation using DEVD-AFC as substrate at IC50 after 48 hrs by spectrofluorimeter analysis; format: functional
# MCF7 [29] = assay: Anticlonogenic activity against human MCF7 cells assessed as inhibition of clonogenic expansion after 6 hrs; format: functional, cell-based
# MCF7 [30] = assay: Induction of apoptosis in human MCF7 cells assessed as decrease in mitochondrial membrane potential at IC50 after 48 hrs by flow cytometry; format: functional
# [31] = Antioxidant activity assessed as glutathione peroxidase-like activity measured as time required to oxidize dithiothretol by 50% after addition of H2O2 at 3.24 umol; format: physicochemical
# MCF7 [32] = assay: Drug uptake in human MCF7 cells assessed as intracellular Se accumulation at 12.5 to 25 uM after 12 to 24 hrs by GF-AAS analysis; format: ADME, cell-based; conditions: mcf7, 25 µM
# MCF7 [33] = assay: Increase in oxidant species production in human MCF7 cells at 25 uM by CM-DCFDA based fluorescence plate reader analysis; format: functional, cell-based
# MCF7 [34] = assay: Effect on glutathione peroxidase activity in human MCF7 cells using tert-butyl hydroperoxide and GSH as substrate at 1.25 to 20 uM after 24 hrs by spectrophotometric analysis; format: cell-based
# [35] = Antioxidant activity assessed as DPPH radical scavenging activity at 1 mM after 1 hr; format: physicochemical; conditions: 1000 µM
SMILES,IC50 (MCF7 [1]),IC50 (A-431 [2]),IC50 (A-375),Ratio IC50 (HEK293 [4]),Ratio IC50 (A-431 [5]),IC50 (A-431 [6]),IC50 (HCT-15),Ratio IC50 (NCI/ADR-RES [7]),IC50 [8],Ratio IC50 (HEK293 [9]),IC50 [10],IC50 (HEK293 [11]),Ratio IC50 (HEK293 [12]),Ratio IC50 (HEK293 [13]),Ratio IC50 (HEK293 [14]),Ratio IC50 (C13 [15]),IC50 [16],Ratio IC50 (HEK293 [18]),IC50 [19],IC50 2008,other results
Oc1cc(O)c2c(=S)cc(-c3ccccc3)oc2c1,70.4 µM,66.3 µM,36.5 µM,1.2,1.6,98.4 µM,56.6 µM,1.2,72.3 µM,1.2,4600 µM,68.3 µM,1.2,1.2,1.2,1.2,64.4 µM,1.2,58.5 µM,41.1 µM,Ratio IC50 (C13 [3]): 1.4; Ratio IC50 (NCI/ADR-RES [17]): 1; Ratio IC50 (HEK293 [20]): 1.2
O=C1O[C@H]([C@@H](O)CO)C(O)=C1O [ASCORBIC ACID],–,–,–,–,–,–,–,–,–,–,6 µM,–,–,–,–,–,–,–,–,–,–
Oc1cc(O)c2c(=[Se])cc(-c3ccccc3)oc2c1,2.25 µM,1.61 µM,1.09 µM,3.7,2,3.18 µM,3.17 µM,3.7,1.96 µM,3.7,659 µM,8.13 µM,3.7,3.7,3.7,3.7,2.31 µM,3.7,4.04 µM,2.87 µM,Activity (MCF7 [21]): Active; inhibition (INH) (MCF7 [22]): 60%; fold change (FC) (MCF7 [23]): 4; Ratio IC50 (C13 [3]): 1.4; inhibition [24]: 75%; Activity [25]: inactive; inhibition (INH) (MCF7 [26]): 60%; Activity [27]: 35%; fold change (FC) (MCF7 [28]): 4; inhibition (MCF7 [29]): Active; fold change (FC) (MCF7 [30]): 4; Time [31]: 3.62 min; Drug uptake (MCF7 [32]): Active; Ratio IC50 (NCI/ADR-RES [17]): 0.9; Activity (MCF7 [33]): Active; Activity (MCF7 [34]): inactive; Ratio IC50 (HEK293 [20]): 3.7
COc1cc(O)c2c(=O)c(OC)c(-c3ccc(OC)c(OC)c3)oc2c1 [RETUSIN],> 100 µM,57.5 µM,69.7 µM,1.6,1.4,82.2 µM,68.1 µM,1.6,> 100 µM,1.6,–,142 µM,1.6,1.6,1.6,1.6,> 100 µM,1.6,> 100 µM,> 100 µM,Activity [35]: 2.5%; Ratio IC50 (HEK293 [20]): 1.6
